Patent US20250340540A1, “Crystal Forms Of HS378 And Preparation Method Therefor” (priority 2022, published 2025)
Read-outs that look alike come from different tables or passages of the source.

What was measured:
[1] = assay type: physicochemical; settings: for Changes of HPLC purity over 10 days: 10 days vs 0 day; for Stability of crystal form and HPLC data: 10 days
Method: The X-ray powder diffraction instrument and test conditions involved in the present disclosure were as follows: X-ray diffraction instrument model MiniFlex600Cu target; operation method: scanning speed 20°/min, scanning step width 0.02°. The liquid phase test conditions involved in the present disclosure were as follows: chromatographic column: Agilent Zorbax SB-18, 150×4.6 mm, 5 μm; mobile phase A: 0.1% phosphoric acid aqueous solution; mobile phase B: acetonitrile; detection wavelength: 205 nm; flow rate: 1.0 ml/min; injection volume: 5 μl; column temperature: […]. The samples of crystal form A obtained in Example 1, the crystal form B obtained in Example 5 of the present disclosure, and the crystal forms 1, 2, 4, and 5 obtained in Preparation Example were placed at 60° C. for 5 days and 10 days, respectively, and subjected to HPLC and XRD detection, respectively.

[2] = Microscope photographs: crystal habit and particle fluidity; assay type: physicochemical; settings: judged from microscope photographs
Description: Microscope photographs of the samples of the crystal form A obtained in Example 1, the crystal form B obtained in Example 5 of the present disclosure, and the crystal forms 1, 2, 4, and 5 obtained in Preparation Example are shown in FIGS. 7-12, respectively.

[3] = human, in vivo; cited from earlier work
[4] = 0 Day, before placing at 60° C.

| SMILES | HPLC purity (%) [1, 4] | HPLC purity (%) ([1]; 60° C., 5 Days) | HPLC purity (%) ([1]; 60° C., 10 Days) | Changes of HPLC purity over 10 days ([1]; 60° C.) | Stability of crystal form and HPLC data [1] | Particle fluidity [2] | Oral plasma concentration [3] |
| --- | --- | --- | --- | --- | --- | --- | --- |
| CC(C)(C)[C@H](NC(=O)C(F)(F)F)C(=O)N1C[C@H]2[C@@H]([C@H]1C(=O)N[C@H](C#N)C[C@@H]1CCNC1=O)C2(C)C [Crystal form B] | 99.57% | 99.56% | 99.54% | −0.03 | more stable than crystal form 2, crystal form 4 and crystal form 5 | good in particle fluidity | – |
| CC(C)(C)[C@H](NC(=O)C(F)(F)F)C(=O)N1C[C@H]2[C@@H]([C@H]1C(=O)N[C@H](C#N)C[C@@H]1CCNC1=O)C2(C)C [HS378, (1R, 2S, 5S)-N-{(1S)-1-cyano-2-[(3S)-2-oxopyrrolidin-3-yl]-ethyl}-6,6-dimethyl-3-[3-methyl-N-(trifluoroacetyl)-L-valyl]-3-azabicyclo [3.1.0]hexane-2-carboxamide] | – | – | – | – | – | – | exceeding in vitro antiviral cell efficacy |
| CC(C)(C)[C@H](NC(=O)C(F)(F)F)C(=O)N1C[C@H]2[C@@H]([C@H]1C(=O)N[C@H](C#N)C[C@@H]1CCNC1=O)C2(C)C [Crystal form 4] | 93.31% | 93.26% | 93.14% | −0.17 | – | – | – |
| CC(C)(C)[C@H](NC(=O)C(F)(F)F)C(=O)N1C[C@H]2[C@@H]([C@H]1C(=O)N[C@H](C#N)C[C@@H]1CCNC1=O)C2(C)C [Crystal form 1] | 95.34% | 95.34% | 95.31% | −0.03 | more stable than crystal form 2, crystal form 4 and crystal form 5 | poor fluidity | – |
| CC(C)(C)[C@H](NC(=O)C(F)(F)F)C(=O)N1C[C@H]2[C@@H]([C@H]1C(=O)N[C@H](C#N)C[C@@H]1CCNC1=O)C2(C)C [Crystal form A] | 99.86% | 99.86% | 99.85% | −0.01 | more stable than crystal form 2, crystal form 4 and crystal form 5 | good in particle fluidity | – |
| CC(C)(C)[C@H](NC(=O)C(F)(F)F)C(=O)N1C[C@H]2[C@@H]([C@H]1C(=O)N[C@H](C#N)C[C@@H]1CCNC1=O)C2(C)C [Crystal form 2] | 93.83% | 93.71% | 93.52% | −0.31 | – | poor fluidity | – |
| CC(C)(C)[C@H](NC(=O)C(F)(F)F)C(=O)N1C[C@H]2[C@@H]([C@H]1C(=O)N[C@H](C#N)C[C@@H]1CCNC1=O)C2(C)C [Crystal form 5] | 91.23% | 91.05% | 90.79% | −0.44 | – | poor fluidity | – |
